Experimental data: the NIST ThermoML archive (doi:10.1016/j.tca.2005.11.041)

Experiment: excess molar enthalpy (molar enthalpy of mixing); xn = mol fraction of the nth substance listed
Conditions: Liquid, Flow calorimetry

COC=O [methyl methanoate] + CCCO
excess molar enthalpy [kcal/mol]
Conditions	298.15 K	333.15 K
5000 kPa, x1 = 0.0399	0.0784	–
5000 kPa, x1 = 0.0788	0.1484	–
5000 kPa, x1 = 0.1201	0.2123	–
5000 kPa, x1 = 0.1621	0.2668	–
5000 kPa, x1 = 0.2066	0.3134	–
5000 kPa, x1 = 0.2501	0.3511	–
5000 kPa, x1 = 0.2944	0.38	–
5000 kPa, x1 = 0.3414	0.4016	–
5000 kPa, x1 = 0.3893	0.4175	–
5000 kPa, x1 = 0.4381	0.4248	–
5000 kPa, x1 = 0.4878	0.4274	–
5000 kPa, x1 = 0.5386	0.4217	–
5000 kPa, x1 = 0.5903	0.4078	–
5000 kPa, x1 = 0.6452	0.3837	–
5000 kPa, x1 = 0.699	0.3526	–
5000 kPa, x1 = 0.7562	0.3063	–
5000 kPa, x1 = 0.8146	0.2533	–
5000 kPa, x1 = 0.8743	0.1849	–
5000 kPa, x1 = 0.9376	0.09713	–
10000 kPa, x1 = 0.0398	0.08184	–
10000 kPa, x1 = 0.0403	–	0.0804
10000 kPa, x1 = 0.0786	0.1545	–
10000 kPa, x1 = 0.0788	–	0.1602
10000 kPa, x1 = 0.1197	0.2204	–
10000 kPa, x1 = 0.1205	–	0.2359
10000 kPa, x1 = 0.1616	0.2756	–
10000 kPa, x1 = 0.1629	–	0.3022
10000 kPa, x1 = 0.2061	0.3245	0.3577
10000 kPa, x1 = 0.2495	0.3621	–
10000 kPa, x1 = 0.25	–	0.4038
10000 kPa, x1 = 0.2937	0.3913	–
10000 kPa, x1 = 0.2948	–	0.4424
10000 kPa, x1 = 0.3404	–	0.4715
10000 kPa, x1 = 0.3407	0.4134	–
10000 kPa, x1 = 0.3868	–	0.4918
10000 kPa, x1 = 0.3885	0.4284	–
10000 kPa, x1 = 0.437	–	0.5043
10000 kPa, x1 = 0.4373	0.436	–
10000 kPa, x1 = 0.4853	–	0.5087
10000 kPa, x1 = 0.487	0.4358	–
10000 kPa, x1 = 0.5374	–	0.5014
10000 kPa, x1 = 0.5377	0.428	–
10000 kPa, x1 = 0.5895	0.4126	–
10000 kPa, x1 = 0.5907	–	0.4864
10000 kPa, x1 = 0.6444	0.3875	–
10000 kPa, x1 = 0.645	–	0.4589
10000 kPa, x1 = 0.6983	0.3565	–
10000 kPa, x1 = 0.7005	–	0.4193
10000 kPa, x1 = 0.7556	0.3115	–
10000 kPa, x1 = 0.7572	–	0.3654
10000 kPa, x1 = 0.8141	0.2558	–
10000 kPa, x1 = 0.8151	–	0.3029
10000 kPa, x1 = 0.8739	0.1848	–
10000 kPa, x1 = 0.8743	–	0.2236
10000 kPa, x1 = 0.9347	–	0.1235
10000 kPa, x1 = 0.9374	0.09637	–

COC=O [methyl methanoate] + CC(C)O
298.15 K
Conditions	excess molar enthalpy [kcal/mol]
5000 kPa, x1 = 0.0399	0.08475
5000 kPa, x1 = 0.0822	0.1674
5000 kPa, x1 = 0.1235	0.2356
5000 kPa, x1 = 0.1656	0.2947
5000 kPa, x1 = 0.2102	0.3451
5000 kPa, x1 = 0.2556	0.3878
5000 kPa, x1 = 0.3	0.4214
5000 kPa, x1 = 0.3471	0.4472
5000 kPa, x1 = 0.3951	0.4659
5000 kPa, x1 = 0.444	0.4756
5000 kPa, x1 = 0.4938	0.4777
5000 kPa, x1 = 0.5447	0.4726
5000 kPa, x1 = 0.5965	0.4596
5000 kPa, x1 = 0.6494	0.4357
5000 kPa, x1 = 0.7055	0.3992
5000 kPa, x1 = 0.7606	0.3557
5000 kPa, x1 = 0.8191	0.2934
5000 kPa, x1 = 0.8766	0.223
5000 kPa, x1 = 0.9376	0.1214
10000 kPa, x1 = 0.0398	0.0857
10000 kPa, x1 = 0.082	0.1675
10000 kPa, x1 = 0.1232	0.2355
10000 kPa, x1 = 0.1651	0.2936
10000 kPa, x1 = 0.2096	0.3446
10000 kPa, x1 = 0.2549	0.3862
10000 kPa, x1 = 0.2993	0.4185
10000 kPa, x1 = 0.3463	0.4443
10000 kPa, x1 = 0.3943	0.4624
10000 kPa, x1 = 0.4432	0.4723
10000 kPa, x1 = 0.493	0.4745
10000 kPa, x1 = 0.5439	0.4703
10000 kPa, x1 = 0.5957	0.4555
10000 kPa, x1 = 0.6487	0.4324
10000 kPa, x1 = 0.7048	0.3963
10000 kPa, x1 = 0.76	0.351
10000 kPa, x1 = 0.8186	0.2901
10000 kPa, x1 = 0.8762	0.2164
10000 kPa, x1 = 0.9374	0.118

COC=O [methyl methanoate] + CCCCCO
298.15 K
Conditions	excess molar enthalpy [kcal/mol]
5000 kPa, x1 = 0.0507	0.1315
5000 kPa, x1 = 0.0997	0.2364
5000 kPa, x1 = 0.1503	0.3231
5000 kPa, x1 = 0.2004	0.3893
5000 kPa, x1 = 0.2494	0.4395
5000 kPa, x1 = 0.2991	0.4781
5000 kPa, x1 = 0.3496	0.5052
5000 kPa, x1 = 0.4005	0.5217
5000 kPa, x1 = 0.4488	0.5278
5000 kPa, x1 = 0.4998	0.5254
5000 kPa, x1 = 0.5506	0.5101
5000 kPa, x1 = 0.6009	0.493
5000 kPa, x1 = 0.6503	0.4643
5000 kPa, x1 = 0.6986	0.4309
5000 kPa, x1 = 0.7492	0.3859
5000 kPa, x1 = 0.7983	0.3299
5000 kPa, x1 = 0.8497	0.2628
5000 kPa, x1 = 0.8992	0.181
5000 kPa, x1 = 0.9509	0.08525
10000 kPa, x1 = 0.0505	0.1287
10000 kPa, x1 = 0.0994	0.2336
10000 kPa, x1 = 0.1499	0.3196
10000 kPa, x1 = 0.1998	0.386
10000 kPa, x1 = 0.251	0.438
10000 kPa, x1 = 0.3009	0.476
10000 kPa, x1 = 0.3488	0.5032
10000 kPa, x1 = 0.3997	0.5192
10000 kPa, x1 = 0.4509	0.5253
10000 kPa, x1 = 0.499	0.5227
10000 kPa, x1 = 0.5498	0.5116
10000 kPa, x1 = 0.6001	0.4941
10000 kPa, x1 = 0.6496	0.4661
10000 kPa, x1 = 0.7017	0.4273
10000 kPa, x1 = 0.7486	0.3851
10000 kPa, x1 = 0.802	0.3276
10000 kPa, x1 = 0.8493	0.2631
10000 kPa, x1 = 0.8988	0.1821
10000 kPa, x1 = 0.9507	0.0824

COC=O [methyl methanoate] + CCC(C)O
excess molar enthalpy [kcal/mol], 298.15 K
Conditions	5000 kPa	10000 kPa
x1 = 0.0501	0.1085	–
x1 = 0.0996	–	0.2144
x1 = 0.1	0.2057	–
x1 = 0.1496	0.2851	–
x1 = 0.15	–	0.2904
x1 = 0.1994	–	0.3556
x1 = 0.2	0.3517	–
x1 = 0.2493	–	0.4085
x1 = 0.2496	0.4039	–
x1 = 0.2997	–	0.4503
x1 = 0.2999	0.4445	–
x1 = 0.3504	–	0.4797
x1 = 0.3508	0.4745	–
x1 = 0.3993	–	0.4997
x1 = 0.4004	0.4926	–
x1 = 0.4503	0.5028	–
x1 = 0.4504	–	0.5095
x1 = 0.4992	–	0.5099
x1 = 0.5003	0.5039	–
x1 = 0.5501	–	0.5012
x1 = 0.5505	0.4958	–
x1 = 0.6006	0.4793	0.4852
x1 = 0.6505	0.4572	–
x1 = 0.6508	–	0.4587
x1 = 0.7002	0.4214	–
x1 = 0.7003	–	0.4234
x1 = 0.7491	–	0.3804
x1 = 0.7494	0.3806	–
x1 = 0.7997	–	0.3235
x1 = 0.8004	0.3283	–
x1 = 0.8494	–	0.2584
x1 = 0.8509	0.2606	–
x1 = 0.9006	0.1836	–
x1 = 0.9008	–	0.1743
x1 = 0.9495	0.09928	–

COC=O [methyl methanoate] + CCCCO
298.15 K
Conditions	excess molar enthalpy [kcal/mol]
5000 kPa, x1 = 0.0501	0.1057
5000 kPa, x1 = 0.1	0.1987
5000 kPa, x1 = 0.1496	0.2737
5000 kPa, x1 = 0.2	0.3348
5000 kPa, x1 = 0.2496	0.3818
5000 kPa, x1 = 0.2999	0.4177
5000 kPa, x1 = 0.3508	0.4426
5000 kPa, x1 = 0.4004	0.459
5000 kPa, x1 = 0.4503	0.4661
5000 kPa, x1 = 0.5003	0.4654
5000 kPa, x1 = 0.5505	0.4566
5000 kPa, x1 = 0.6006	0.4399
5000 kPa, x1 = 0.6505	0.4136
5000 kPa, x1 = 0.7002	0.3807
5000 kPa, x1 = 0.7494	0.3421
5000 kPa, x1 = 0.8004	0.2897
5000 kPa, x1 = 0.8509	0.2321
5000 kPa, x1 = 0.9006	0.162
5000 kPa, x1 = 0.9495	0.0826
10000 kPa, x1 = 0.05	0.1054
10000 kPa, x1 = 0.0997	0.1979
10000 kPa, x1 = 0.1506	0.2747
10000 kPa, x1 = 0.1994	0.3337
10000 kPa, x1 = 0.2505	0.3818
10000 kPa, x1 = 0.2992	0.4163
10000 kPa, x1 = 0.35	0.4416
10000 kPa, x1 = 0.3996	0.4564
10000 kPa, x1 = 0.4495	0.464
10000 kPa, x1 = 0.4995	0.4626
10000 kPa, x1 = 0.5497	0.4531
10000 kPa, x1 = 0.5998	0.4355
10000 kPa, x1 = 0.6498	0.4104
10000 kPa, x1 = 0.6995	0.3791
10000 kPa, x1 = 0.7511	0.337
10000 kPa, x1 = 0.7999	0.288
10000 kPa, x1 = 0.8505	0.2283
10000 kPa, x1 = 0.9003	0.1592
10000 kPa, x1 = 0.9493	0.07925
